# US20230077983A1, “METHODS OF TREATING AND PREVENTING ENGRAFTMENT ARRHYTHMIAS” (UNIVERSITY OF WASHINGTON, priority 2020, published 2023)
# Like-named read-outs stand apart in the source and are kept apart here. Marks after values point to notes of the source that are not given here.
# Experiments:
# [1] = Amiodarone drug monitoring by liquid chromatography-mass spectrometry after discontinuation of oral therapy; assay type: in vivo, pigs; conditions: within 1 week of discontinuation of chronic oral amiodarone; pig
# Procedure: Amiodarone levels were measured in plasma by a liquid chromatography-mass spectrometry assay. Chronic oral amiodarone in six pigs was discontinued after achieving electrical maturation and stabilization of engraftment arrythmia. Serum concentrations of amiodarone were assayed weekly, including 3-4 weeks after discontinuation.
# A novel liquid chromatography—mass spectrometry assay was established for amiodarone to monitor steady state serum levels in the porcine model and guide oral dosing to ensure efficacy and avoid dose-related toxicity. A target serum level of 1.5-4.0 μg/ml was extrapolated from prior human pharmacokinetic studies (16,17). Elimination kinetics after discontinuation of oral amiodarone therapy were also studied by obtaining weekly trough concentrations in 6 pigs (subjects 6, 7, 8, 13, 14, 16) (FIG. 18).
# [2] = tested on: engraftment arrhythmia (EA); conditions: for Result: HR effect / Result: cardioversion / Result: response on EA burden: Table 1, swine; for Effect: HR effect / Effect: cardioversion / Effect: response on EA burden: Table 2, Phase 1; for effect on heart rate (agent alone) / effect on rhythm: cardioversion / sinus rhythm / arrhythmia burden (agent alone): running text and figure legend, pigs in EA
# Procedure: A number of anti-arrhythmic therapies were tested to determine their efficacy in treating and preventing engraftment arrhythmias.
# The objective of this study was to identify a pharmacological regimen to attenuate arrhythmias following cardiac remuscularization therapy. This study was designed in two phases: the first, to observe the natural history of EA and screen various antiarrhythmic agents for efficacy and the second, test for efficacy (FIG. 16). All subjects were 30-40 kg castrated male Yucatan minipigs between 6-13 months of age (S&S Farms). In Phase 1, nine subjects underwent cardiac remuscularization therapy with 500×10^6 hESC-CM delivered by direct surgical transepicardial injections or later, by percutaneous transendocardial injections. The first four subjects (one non-infarcted and three infarcted) were followed to learn the natural history of EA and establish clinical endpoints and parameters for the Phase 2 drug trial. The subsequent five subjects underwent systematic dosing with antiarrhythmic agents with continuous electrocardiography (ECG) monitoring to determine effect on rhythm and rate (Table 2).
# In addition, the funny current/HCN4 channel antagonist, ivabradine, was tested (Tables 1 and 2). This series was not meant to be definitive but rather to rapidly identify candidate agents. Animals were brought into the laboratory while in EA, anesthetized, and the effects of short-term intravenous infusion of anti-arrhythmic agents were studied.
# Subjects were administered multiple trials antiarrhythmics and observed for acute response by continuous ECG monitoring. Intravenous agents were delivered as a bolus dose over 2 minutes. Oral agents were administrated by direct observation in a minimum of apples, apple sauce or pumpkin puree with daily feeding and dosed daily for dose escalation. A washout period of at least three days was provided between agents. Amiodarone was administered as the last agent for testing given concern for prolonged half-life and elimination kinetics. All agents were tested in at least two subjects.
# [3] = tested on: engraftment arrhythmia (EA); test: Antiarrhythmic trial in non-human primate engraftment model; assay type: in vivo; conditions: Table 1, concentration not given
SMILES,Result: HR effect [2],Effect: HR effect ([2]; pig),effect in the antiarrhythmic screen (heart rate or arrhythmia burden) [2],Result: response on EA burden [2],Effect: response on EA burden ([2]; pig),further results
CCCCc1oc2ccccc2c1C(=O)c1cc(I)c(OCCN(CC)CC)c(I)c1 [Amiodarone],Modest HR effect,Modest HR effect,–,–,–,Average serum amiodarone [1]: 0.42 ± 0.12 µg/mL; Result: cardioversion [2]: frequent; Effect: cardioversion ([2]; pig): frequent; effect on heart rate (agent alone) [2]: moderate effect on reducing heart rate; effect on rhythm: cardioversion / sinus rhythm / arrhythmia burden (agent alone) [2]: effective as an intravenous bolus to cardiovert
COCCc1ccc(OCC(O)CNC(C)C)cc1 (centres unmarked) [Metoprolol],Moderate HR effect (IV only),Moderate HR effect (IV only),no significant effect,no,no,–
O=C(NCC1CCCCN1)c1cc(OCC(F)(F)F)ccc1OCC(F)(F)F (centres unmarked) [Flecainide],No response on HR or EA burden,No response on HR or EA burden,no significant effect,No response on HR or EA burden,No response on HR or EA burden,–
CCCNCC(O)COc1ccccc1C(=O)CCc1ccccc1 (centres unmarked) [Propafenone],–,–,–,–,–,"Effect: adverse events (footnotes * and **) ([2]; pig, in vivo): *Severe nausea/emesis observed at therapeutic doses, limiting clinical utility; Result: adverse events (* remarks) ([2]; pig, in vivo): * Dose limited emesis"
CC(C)NCC(O)c1ccc(NS(C)(=O)=O)cc1 (centres unmarked) [Sotalol],No response on HR or EA burden,No response on HR or EA burden,no significant effect,No response on HR or EA burden,No response on HR or EA burden,–
CCN(CC)CC(=O)Nc1c(C)cccc1C [Lidocaine],Modest HR effect,Modest HR effect,no significant effect,–,–,Result: cardioversion [2]: rare; Effect: cardioversion ([2]; pig): rare
COc1cc2c(cc1OC)CC(=O)N(CCCN(C)C[C@H]1Cc3cc(OC)c(OC)cc31)CC2 [Ivabradine],Robust dose-dependent HR,Robust dose-dependent HR effect (PO,–,–,"only)**, no response on EA burden","Effect: adverse events (footnotes * and **) ([2]; pig, in vivo): **Severe bradycardia; effect on heart rate (agent alone) ([2]; listed as ivabradine): robust dose-dependent effects on heart rate; effect on rhythm: cardioversion / sinus rhythm / arrhythmia burden (agent alone) ([2]; listed as ivabradine): did not restore sinus rhythm"
COc1ccc(CCN(C)CCCC(C#N)(c2ccc(OC)c(OC)c2)C(C)C)cc1OC (centres unmarked) [Verapamil],–,–,–,–,–,Result [3]: Sudden cardiac death
O=C1CN(/N=C/c2ccc(-c3ccc([N+](=O)[O-])cc3)o2)C(O)=N1 [Dantrolene],No response on HR or EA burden,–,–,No response on HR or EA burden,–,–
